Where two headings read alike, the source gives them in different places.
How the values were obtained:
[1] = tested on: wheat (TRZAW; Triticum aestivum); assay: Test K postemergence; type: in vivo; details: 16 g a.i./ha, 15 days
Description: (§1) Seeds of plant species selected from sulfonylurea herbicide-susceptible (SU-susceptible) and sulfonylurea herbicide-resistant (SU-resistant) catchweed bedstraw (GALAP; Galium aparine) and wheat (TRZAW; Triticum aestivum) were treated with postemergence applications of test chemicals formulated in a non-phytotoxic solvent mixture which included a surfactant. Plants were treated at the 2-3 leaf stage and 2 whorl stage for wheat and catchweed bedstraw, respectively. Treated plants and controls were maintained in a controlled growth environment for 15 days after which time all species were compared to controls and visually evaluated. Plant response ratings, summarized in Table K, are based on a scale of 0 to 100 where 0 is no effect and 100 is complete control. A dash (-) response means no test result.

[2] = tested on: sulfonylurea herbicide-susceptible (SU-susceptible) catchweed bedstraw (GALAP; Galium aparine); assay: Test K postemergence; type: in vivo; details: 16 g a.i./ha, 15 days
Description: as §1

[3] = tested on: sulfonylurea herbicide-resistant (SU-resistant) catchweed bedstraw (GALAP; Galium aparine); assay: Test K postemergence; type: in vivo; details: 16 g a.i./ha, 15 days
Description: as §1

[4] = tested on: barnyardgrass (Echinochloa crus-galli); assay: Test A pre/postemergence; type: in vivo; details: Echinochloa crus-galli, 240 h, read-out: Plant response rating, Barnyardgrass; for pest or weed control at 125 g/ha: 125 g ai/ha; for pest or weed control at 500 g/ha: 500 g ai/ha
Summary of the method: (§2)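 Ratings: 0 = no effect, 100 = complete control, assessed visually about ten days post-treatment in a greenhouse. Applications: soil-directed preemergence spray and postemergence spray on 1- to 2-leaf plants, both using a surfactant-containing non-phytotoxic solvent formulation.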

[5] = tested on: morningglory (Ipomoea spp.); assay: Test A pre/postemergence; type: in vivo; details: Ipomoea, 240 h, read-out: Plant response rating, Morningglory; for pest or weed control at 125 g/ha: 125 g ai/ha; for pest or weed control at 500 g/ha: 500 g ai/ha
Summary of the method: as §2

[6] = tested on: velvetleaf (Abutilon theophrasti); assay: Test A pre/postemergence; type: in vivo; details: Abutilon theophrasti, 240 h, read-out: Plant response rating, Velvetleaf; for pest or weed control at 125 g/ha: 125 g ai/ha; for pest or weed control at 500 g/ha: 500 g ai/ha
Summary of the method: as §2

[7] = tested on: redroot pigweed (Amaranthus retroflexus); assay: Test A pre/postemergence; type: in vivo; details: Amaranthus retroflexus, 240 h, read-out: Plant response rating, Pigweed; for pest or weed control at 125 g/ha: 125 g ai/ha; for pest or weed control at 500 g/ha: 500 g ai/ha
Summary of the method: as §2

[8] = tested on: giant foxtail (Setaria faberi); assay: Test A pre/postemergence; type: in vivo; details: Setaria faberi, 240 h, read-out: Plant response rating, Foxtail, Giant; for pest or weed control at 125 g/ha: 125 g ai/ha; for pest or weed control at 500 g/ha: 500 g ai/ha
Summary of the method: as §2

[9] = tested on: crabgrass (Digitaria sanguinalis); assay: Test A pre/postemergence; type: in vivo; details: Digitaria sanguinalis, 240 h, read-out: Plant response rating, Crabgrass; for pest or weed control at 125 g/ha: 125 g ai/ha; for pest or weed control at 500 g/ha: 500 g ai/ha
Summary of the method: as §2

[10] = post-emergence, Postemergence, 0 to 100 scale (0 no effect, 100 complete control)
[11] = pre-emergence, Preemergence, 0 to 100 scale where 0 is no effect and 100 is complete control, approximately ten days

| SMILES | pest or weed control at 125 g/ha [4, 10] [%] | pest or weed control at 500 g/ha [4, 10] [%] | pest or weed control at 125 g/ha [4, 11] [%] | pest or weed control at 500 g/ha [4, 11] [%] | pest or weed control at 125 g/ha [5, 10] [%] | pest or weed control at 500 g/ha [5, 10] [%] | pest or weed control at 125 g/ha [5, 11] [%] | pest or weed control at 500 g/ha [5, 11] [%] | pest or weed control at 125 g/ha [6, 10] [%] | pest or weed control at 500 g/ha [6, 10] [%] | pest or weed control at 125 g/ha [6, 11] [%] | pest or weed control at 500 g/ha [6, 11] [%] | pest or weed control at 125 g/ha [7, 10] [%] | pest or weed control at 500 g/ha [7, 10] [%] | pest or weed control at 125 g/ha [7, 11] [%] | pest or weed control at 500 g/ha [7, 11] [%] | pest or weed control at 125 g/ha [8, 10] [%] | pest or weed control at 500 g/ha [8, 10] [%] | pest or weed control at 125 g/ha [8, 11] [%] | pest or weed control at 500 g/ha [8, 11] [%] | further results |
| --- | --- | --- | --- | --- | --- | --- | --- | --- | --- | --- | --- | --- | --- | --- | --- | --- | --- | --- | --- | --- | --- |
| COc1nc(C)nc(NC(=O)NS(=O)(=O)c2ccccc2Cl)n1 [Chlorsulfuron, chlorsulfuron, reference compound] | – | – | – | – | – | – | – | – | – | – | – | – | – | – | – | – | – | – | – | – | Plant response rating (0 to 100 scale) [1]: 20; Plant response rating (0 to 100 scale) [2]: 100; Plant response rating (0 to 100 scale) [3]: 5 |
| NC(=O)c1nc(C2CC2)nc(N)c1Cl [Compound 85] | 0 | 0 | 0 | 0 | 20 | 75 | 0 | 20 | 25 | 60 | 0 | 10 | 75 | 90 | 50 | 60 | 0 | 0 | 0 | 0 | pest or weed control at 125 g/ha [9, 10]: 0%; pest or weed control at 500 g/ha [9, 10]: 0%; pest or weed control at 125 g/ha [9, 11]: 0%; pest or weed control at 500 g/ha [9, 11]: 5%; melting point: 232 to 236 °C |
| CCOC(=O)c1nc(C(C)C)nc(N)c1Cl [Compound 108] | 0 | 5 | 10 | 15 | 70 | 90 | 0 | 90 | 35 | 65 | 10 | 50 | 50 | 85 | 55 | 75 | 0 | 10 | 0 | 0 | pest or weed control at 125 g/ha [9, 10]: 0%; pest or weed control at 500 g/ha [9, 10]: 0%; pest or weed control at 125 g/ha [9, 11]: 0%; pest or weed control at 500 g/ha [9, 11]: 20%; melting point: 102 to 103 °C |
| COC(=O)c1nc(C(C)C)nc(N)c1Cl [Compound 110] | 0 | 10 | 0 | 15 | 70 | 85 | 0 | 90 | 40 | 65 | 25 | 35 | 55 | 85 | 40 | 65 | 0 | 5 | 0 | 0 | pest or weed control at 125 g/ha [9, 10]: 0%; pest or weed control at 500 g/ha [9, 10]: 10%; pest or weed control at 125 g/ha [9, 11]: 0%; pest or weed control at 500 g/ha [9, 11]: 15%; melting point: 100 to 104 °C (dec.) |
